Measured values: patent US20010021697A1, “METHODS AND COMPOSITIONS FOR THE TREATMENT OF MAMMALIAN INFECTIONS EMPLOYING MEDICAMENTS COMPRISING HYMENOPTERA VENOM, PROTEINAGEOUS OR POLYPEPTIDE COMPONENTS THEREOF, OR ANALOGUES OF SUCH PROTEINACEOUS OR POLYPEPTIDE COMPONENTS” (priority 1987, published 2001)

Experiments:
E. coli G1108E = experiment: Checkerboard titration synergy assay of melittin analogues with polymyxin B; assay type: cell-based; conditions: for relative in vitro activity, place in ascending order: 5 ug/ml peptide with 6 units/ml polymyxin B, delay time until mid-log phase (FIG. 26)
[1] = Relative activity of analogues with respect to native melittin; assay type: cell-based
Description: Also some of then analogues mentioned above were tested to determine their relative activities with respect to native melittin. The relative activity is calculated as follows: [formula]

[2] = tested on: E. Coli strain No. G1108E; experiment: Checkerboard titration synergy assay of natural melittin and analogue #6 with polymyxin B; assay type: cell-based; conditions: for synergistic activity with polymyxin B compared with natural melittin: E. coli, 10 ug peptide + 6 units polymyxin B
S. aureus [3] = experiment: Equivalent doses of melittin fraction and whole honeybee venom with and without kanamycin (growth curves); assay type: cell-based; conditions: for MEAN A660: doses of what is present: KANA = 2.5, MEL = 1.6, HBV = 2 (ug/ml)
[4] = tested on: 30 random strains of bacteria; conditions: Sephadex G-50 purified melittin fraction; cited from earlier work
E. coli = experiment: Automated MIC assay (Sensititre) of antibiotics with and without HBV; assay type: cell-based; conditions: with vs without 4 ug/ml HBV
S. aureus [5] = experiment: as above; assay type: cell-based; conditions: with vs without 4 ug/ml HBV
Streptococcus faecalis = experiment: as above; assay type: cell-based; conditions: Streptococcus faecalis strain 81-; with vs without 4 ug/ml HBV
S. epidermidis = experiment: as above; assay type: cell-based; conditions: with vs without 4 ug/ml HBV
[6] = 0 hrs, doses of what is present: Polymyxin B 3 units, peptide 5 ug
[7] = 0 hrs, doses of what is present: Polymyxin B 6 units, peptide 10 ug
[8] = 2 hrs, doses of what is present: Polymyxin B 3 units, peptide 5 ug
[9] = 2 hrs, doses of what is present: Polymyxin B 6 units, peptide 10 ug
[10] = 4 hrs, doses of what is present: Polymyxin B 3 units, peptide 5 ug
[11] = 4 hrs, doses of what is present: Polymyxin B 6 units, peptide 10 ug
[12] = 6 hrs, doses of what is present: Polymyxin B 3 units, peptide 5 ug
[13] = 6 hrs, doses of what is present: Polymyxin B 6 units, peptide 10 ug
[14] = 8 hrs, doses of what is present: Polymyxin B 3 units, peptide 5 ug
[15] = 8 hrs, doses of what is present: Polymyxin B 6 units, peptide 10 ug
[16] = 12 hrs, doses of what is present: Polymyxin B 3 units, peptide 5 ug
[17] = 12 hrs, doses of what is present: Polymyxin B 6 units, peptide 10 ug
[18] = S. aureus strain QC (printed 0C)

With “Melittin (1-20) - Lys-Arg-Lys-Arg-Gly-Gly-NH2 [Analogue #4]” the “relative in vitro activity, place in ascending order” value (from here on “relative in vitro activity, place”) (E. coli G1108E) was 7.
With “H-Gly-Ile-Gly-Ala-Val-Leu-Lys-Val-Leu-Thr-Thr-Gly-Leu-Pro-Ala-Leu-Ile-Ser-Trp-Ile-Lys-Lys-Lys-Lys-Gln-Gln-NH2 (H-GIGAVLKVLTTGLPALISWIKKKKQQ-NH2) [Analogue #6]” the “relative in vitro activity, place” value (E. coli G1108E) was 4, the “Relative Activity” value [1] was 100% and the “Average optical densities (OD660)” value [2, 6] was “.013”. The “Average optical densities (OD660)” value [2, 7] was “.013”, the “Average optical densities (OD660)” value [2, 8] was “.072” and the “Average optical densities (OD660)” value [2, 9] was “.072”. The “Average optical densities (OD660)” value [2, 10] was “.831”, the “Average optical densities (OD660)” value [2, 11] was “.824” and the “Average optical densities (OD660)” value [2, 12] was 1.07. For the same substance, the “Average optical densities (OD660)” value [2, 13] was 1.09, the “Average optical densities (OD660)” value [2, 14] was 1.09 and the “Average optical densities (OD660)” value [2, 15] was 1.11. For the same substance, the “Average optical densities (OD660)” value [2, 16] was 1.16, the “Average optical densities (OD660)” value [2, 17] was 1.17 and the “synergistic activity with polymyxin B compared with natural melittin” value [2] was “At no time could a significant difference be detected”. The “synergistic activity with polymyxin B compared with natural melittin” value ([2]; listed as Analogue No. 6) was “activity equivalent to natural melittin” and the “difference between the specific activities of melittin versus analogue #6” value ([2]; estimated from Table 11) was “less than 10%”.
With Melittin (1-20) - NH2 [Analogue #1] the “Relative Activity” value [1] was 20%.
With “Melittin (1-20)-Lys-Arg-Lys-Arg-Gln-Gln-NH2.” the “MEAN A660” value (S. aureus [3]; T0) was 0.021, the “MEAN A660” value (S. aureus [3]; T2) was 0.080 and the “MEAN A660” value (S. aureus [3]; T4) was 0.374. The “MEAN A660” value (S. aureus [3]; T6) was 1.099, the “MEAN A660” value (S. aureus [3]; T8) was 1.288 and the “MEAN A660” value (S. aureus [3]; T12) was 1.339. For the same substance, the “MEAN A660” value (S. aureus [3]; T24) was 1.415, the “antibacterial activity of the melittin fraction compared with whole HBV, in combination with kanamycin” value (S. aureus [3]; equivalent doses with equal doses of kanamycin (FIG. 15)) was “None of the optical densities at any time point on the two curves are significantly different” and the “antibacterial activity of the melittin fraction compared with whole HBV” value (S. aureus [3]; equivalent doses, without antibiotic (FIG. 14)) was “No significant differences”. For the same substance, the “relative in vitro activity, place” value (E. coli G1108E) was 2, the “effect of the peptide alone on the growth of E. coli” value (E. coli G1108E; used alone at 10 ug/ml or less) was “no effect” and the antibacterial activity [4] was “potent antibacterial activity”. For the same substance, the “Average optical densities (OD660)” value [2, 6] was “.013”, the “Average optical densities (OD660)” value [2, 7] was “.013” and the “Average optical densities (OD660)” value [2, 8] was “.072”. The “Average optical densities (OD660)” value [2, 9] was “.072”, the “Average optical densities (OD660)” value [2, 10] was “.833” and the “Average optical densities (OD660)” value [2, 11] was “.0827”. For the same substance, the “Average optical densities (OD660)” value [2, 12] was 1.10, the “Average optical densities (OD660)” value [2, 13] was 1.09 and the “Average optical densities (OD660)” value [2, 14] was 1.11. The “Average optical densities (OD660)” value [2, 15] was 1.10, the “Average optical densities (OD660)” value [2, 16] was 1.18 and the “Average optical densities (OD660)” value [2, 17] was 1.19.
In the case of “Melittin (1-20) - Orn-Orn-Orn-Orn-Gln-Gln-NH2 [Analogue #2]”, the “relative in vitro activity, place” value (E. coli G1108E) is reported as 6 and the “Relative Activity” value [1] is reported as 200%.
With Gentamicin the “effect of 4 ug/ml HBV on the MIC of the antibiotic” value (“effect of 4 ug/ml HBV” below) (E. coli; E. coli strain 1173) was “− (A (−) indicates a MIC decrease of less than two dilution steps.)”, the “effect of 4 ug/ml HBV” value (E. coli; E. coli strain 4302) was “+ (A (+) indicates a MIC decrease greater than or equal to two dilution steps.)” and the “effect of 4 ug/ml HBV” value (E. coli; E. coli strain 19033) was “+ (A (+) indicates a MIC decrease greater than or equal to two dilution steps.)”. The “effect of 4 ug/ml HBV” value (E. coli; E. coli strain QC) was “+ (A (+) indicates a MIC decrease greater than or equal to two dilution steps.)”, the “effect of 4 ug/ml HBV” value (S. aureus [5]; S. aureus strain 51072) was “+^ (A (+) indicates a MIC decrease greater than or equal to two dilution steps.)” and the “effect of 4 ug/ml HBV” value (S. aureus [5]; [18]) was “+^ (A (+) indicates a MIC decrease greater than or equal to two dilution steps.)”. For the same substance, the “effect of 4 ug/ml HBV” value (Streptococcus faecalis) was “− (A (−) indicates a MIC decrease of less than two dilution steps.)”, the “effect of 4 ug/ml HBV” value (S. epidermidis; S. epidermidis strain 5905) was “− (A (−) indicates a MIC decrease of less than two dilution steps.)” and the “effect of 4 ug/ml HBV” value (S. epidermidis; S. epidermidis strain 5907) was “− (A (−) indicates a MIC decrease of less than two dilution steps.)”. The “effect of 4 ug/ml HBV” value (S. epidermidis; S. epidermidis strain 7905) was “− (A (−) indicates a MIC decrease of less than two dilution steps.)”, the “effect of 4 ug/ml HBV” value (S. epidermidis; S. epidermidis strain 7908) was “+ (A (+) indicates a MIC decrease greater than or equal to two dilution steps.)” and the “effect of 4 ug/ml HBV” value (S. epidermidis; S. epidermidis strain 39817) was “+ (A (+) indicates a MIC decrease greater than or equal to two dilution steps.)”.
With “Melittin (1-20) - Arg-Arg-Arg-Arg-Gln-Gln-NH2 [Analogue #5]” the “relative in vitro activity, place” value (E. coli G1108E) was 8 and the “Relative Activity” value [1] was 300%.
In the case of Venomycin, the “effect of 4 ug/ml HBV” value (S. aureus [5]; S. aureus strain 51072) is reported as “+^ (A (+) indicates a MIC decrease greater than or equal to two dilution steps.)”, the “effect of 4 ug/ml HBV” value (S. aureus [5]; [18]) is reported as “+^ (A (+) indicates a MIC decrease greater than or equal to two dilution steps.)” and the “effect of 4 ug/ml HBV” value (Streptococcus faecalis) is reported as “− (A (−) indicates a MIC decrease of less than two dilution steps.)”. The “effect of 4 ug/ml HBV” value (S. epidermidis; S. epidermidis strain 5905) was “− (A (−) indicates a MIC decrease of less than two dilution steps.)”, the “effect of 4 ug/ml HBV” value (S. epidermidis; S. epidermidis strain 5907) was “− (A (−) indicates a MIC decrease of less than two dilution steps.)” and the “effect of 4 ug/ml HBV” value (S. epidermidis; S. epidermidis strain 7905) was “− (A (−) indicates a MIC decrease of less than two dilution steps.)”. The “effect of 4 ug/ml HBV” value (S. epidermidis; S. epidermidis strain 7908) was “+ (A (+) indicates a MIC decrease greater than or equal to two dilution steps.)” and the “effect of 4 ug/ml HBV” value (S. epidermidis; S. epidermidis strain 39817) was “− (A (−) indicates a MIC decrease of less than two dilution steps.)”.
In the case of “Synthetic Melittin: Synthetic melittin purchased from Peninsula Laboratories, Belmont, Calif.”, the “relative in vitro activity, place” value (E. coli G1108E) is reported as 5.
In the case of “NPS-Melittin: o-nitrophenyl sulfenyl group attached to the number 19 tryptophan residue of natural melittin”, the “relative in vitro activity, place” value (E. coli G1108E) is reported as 3.
With “Melittin (1-20) - Gly-Gly-Gly-Gly-Gln-Gln-NH2 [Analogue #7]” the “relative in vitro activity, place” value (E. coli G1108E) was 1 and the “Relative Activity” value [1] was 20%.
For Penicillin, the “effect of 4 ug/ml HBV” value (S. aureus [5]; S. aureus strain 51072) was “+^6 (A (+) indicates a MIC decrease greater than or equal to two dilution steps.)”, the “effect of 4 ug/ml HBV” value (S. aureus [5]; [18]) was “−^5 (A (−) indicates a MIC decrease of less than two dilution steps.)” and the “effect of 4 ug/ml HBV” value (Streptococcus faecalis) was “− (A (−) indicates a MIC decrease of less than two dilution steps.)”. For the same substance, the “effect of 4 ug/ml HBV” value (S. epidermidis; S. epidermidis strain 5905) was “− (A (−) indicates a MIC decrease of less than two dilution steps.)”, the “effect of 4 ug/ml HBV” value (S. epidermidis; S. epidermidis strain 5907) was “− (A (−) indicates a MIC decrease of less than two dilution steps.)” and the “effect of 4 ug/ml HBV” value (S. epidermidis; S. epidermidis strain 7905) was “+ (A (+) indicates a MIC decrease greater than or equal to two dilution steps.)”. For the same substance, the “effect of 4 ug/ml HBV” value (S. epidermidis; S. epidermidis strain 7908) was “+ (A (+) indicates a MIC decrease greater than or equal to two dilution steps.)” and the “effect of 4 ug/ml HBV” value (S. epidermidis; S. epidermidis strain 39817) was “+ (A (+) indicates a MIC decrease greater than or equal to two dilution steps.)”.
